Measurements taken from patent US20040192641A1, “Special preparation of anticancer drugs made by novel nanotechnology” (priority 2003, published 2004).
Marks after values point to notes of the source that are not given here.

Columns and labels:
L1210 leukemia cells = test: Anti-leukemia activity against lymphoid leukemia L1210 in mice (survival); format: in vivo; conditions: Example 54; i.p. once a day; dose 1, 10, 20 mg/kg/day, group not stated
Protocol: (§1) Animals: Adult DBA/2J male mice, 6 to 8 weeks old. All animals weighed approximately 25 g when used in experiments. Mice were assigned randomly to treatment and control groups. Each member of which received identical dosed (i.p.) of PK or 0.9% NaCl solution for all injections. Volumes were 0.01 ml/g body weight.
(§2) Tumor: L1210 or P388 leukemia cells induced in mice by inoculation with L1210 or P388 leukemia cells (1.0×10^5).
(§3) The leukemia cells were passed i.p. weekly. L1210 or P388 cells were cultured at 37° C. in RPMI-1640 medium (GIBCO) without antibiotics and supplemented with 10% fetal calf serum.
(§4) After the tumor implantation (1×10^5 leukemia cells), PK was injected intraperitoneally once a day. The treatment was started between the end of 2nd and 6th day after inoculation. Dose of PK was 25 mg/kg/day for PK groups. Control mice were treated with same value of 0-9% NaCl. Anti-leukemia activity was expressed as T/C %. T is median survival days of treated group and C is that of control group. A T/C value was greater that 100% means the treated mice is surviving longer than the control mice. […] The statistical significance of data was determined by student's test. […]
(§5) After the tumor implantation (1×10^5 leukemia cells), PK-HHT-SSL was injected intraperitoneally once a day. […] Anti-leukemia activity was expressed as T/C %. […] The statistical significance of data was determined by student's test.

P388 leukemia cells = test: Anti-leukemia activity against P388 lymphocytic leukemia in mice (survival); format: in vivo; conditions: Example 54; i.p. once a day; dose 1, 10, 20 mg/kg/day, group not stated
Protocol: as §1, §2, §3, §4, §5

tyrosine kinase (TK) = test: Tyrosine kinase (TK) activity of HL-60 leukemia cells; format: cell-based, human; conditions: 24 hours
Protocol: H-60 leukemia cells were plated at a density of 5×10^5 cells in […], and divided control and treatments groups for incubation 24 hours at 37° C. with 5% CO2. The cells were collected and washed twice with phosphate-buffered saline and re-suspended at density of 10^6 cells/ml in 5 mM HEPEs buffer (pH 7.4). The cells were then re-suspended in 1 ml of buffer containing 5 mM HEPES (pH 7.6), 1 mM MgCl2 and 1 mM EDTA, then placed on ice bath. The cell membrane was disrupted by ultra sound and centrifuged at 1000×g for 10 minutes. The supernatant was ultra centrifuged at 30,000×g for 30 minutes at 4° C. The pellet was re-suspended in 0.3 ml of buffer containing 25 mM HEOES, centrifuged at 12,000×g for 5 minutes. The resulting supernatant was used for TK assay. Content of protein was determined. 10 μg of protein placed in 20 mM HEPES (pH 7.6), 15 mM MgCl2, 10 mM ZnCl2 and 5% (v/v) Nonidet P-40. After 5 minutes incubation at 25° C., the reaction was initiated by the addition of 25 μM [γ^32P] ATP (3 ci/mmol). After 10 minutes, the reaction was stopped by the addition of 20 mM cold ATP. […] Radioactivity was determined by liquid scintillation spectrometry. The net TK activity was determined after correcting for endogenous TK activity.

gastric cancer cells = test: Differentiation of gastric cancer cells; format: cell-based
Protocol: The gastric cancer cells and normal cells were cultured in PRMI 1640 medium supplement with 10% FCS serum. Other method is similar to example 1.

all cancer cells = test: Inhibition of tumor cell proliferation, all cancer cells (statement); format: cell-based
Protocol: Human tumor cell lines: Hela leukemia HL-60, malignant melanocarcinoma B16, oral epidermoid carcinoma (KB), lung carcinoma (A549), breast carcinoma MCF-7, adenocarcinoma of stomach.
Animal tumor cell lines: Walker carcinoma, LLC-WRC-256, malignant melanoma (RMMI 1846), 3T3, and S-180 sarcoma (CCRF-180). All lines were routinely cultured in the RPMI1640 medium supplemented 20% fetal calf serum. The experiment was carried out in 96 microplate, each well had 5×10^5 cells and given desired concentration of 1 μg/ml (1×10^−6 g/ml) drug. Then the plate was incubated at 37° C. in an atmosphere of humidified air enriched with 5 percent carbon dioxide for 72 hours. Concentration of ELE or PK-ELE-NP is 50 ng/ml.
Inhibition percent rate of tumor cell proliferation was obtained according to the bellow formula. [formula]

Row | Compound | Survival time (L1210 leukemia cells) [days] | Survival time (P388 leukemia cells) [days] | % of control activity (TK) (tyrosine kinase (TK); Concentration 10^−6 M) [%] | % of control activity (TK) (tyrosine kinase (TK); Concentration 10^−7 M) [%] | NBT (%) (gastric cancer cells) | NSE (%) (gastric cancer cells) | Percent rates of inhibition (all cancer cells)
1 | COC(=O)C[C@](O)(CCCC(C)(C)O)C(=O)O[C@@H]1C(OC)=C[C@]23CCCN2CCc2cc4c(cc2[C@H]13)OCO4 [HHT, Homoharringtonine] | 15.6 ± 2.8 | 19.8 ± 4.2 | 20.8 | 14.8 | 58* % | 60* % | –
2 | Eelemene | – | – | – | – | – | – | more than 70%
